Data published in US20160046618A1, “Cyclopropyl Fused Thiazin-2-Amine Compounds as Beta-Secretase Inhibitors and Methods of Use” (AMGEN INC., priority 2014, published 2016).

Columns and labels:
human recombinant BACE2 = human recombinant BACE2 (Homo sapiens (Human), UniProt Q9Y5Z0); assay: In vitro enzymatic BACE2 FRET assay; type: biochemical; settings: read-out: IC50 IP (μM) BACE2 enzyme
Summary of the method: (§1)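 Reactions were initiated by adding 50 nM of a peptide carrying fluorophore and quencher on opposite sides of the cleavage site and ran for one hour. Tris buffer then brought the pH to neutrality, ending the reaction, and fluorescence was measured (488 nm excitation, 590 nm emission).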

human recombinant BACE1 = human recombinant BACE1 (Homo sapiens (Human), UniProt P56817); assay: In vitro enzymatic BACE1 FRET assay; type: biochemical; settings: read-out: IC50 IP (μM) BACE1 enzyme
Summary of the method: as §1

Recombinant Cat D = Recombinant Cat D (Homo sapiens (Human), UniProt P07339); assay: In vitro enzymatic Cathepsin D (Cat D) FRET assay; type: biochemical; settings: read-out: IC50 IP (μM) CatD
Summary of the method: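 Fluorescence at 500 nm excitation and 580 nm emission reports cleavage of a quenched fluorophore–quencher peptide (20 nM) by CHO-expressed Cat D. Reactions ran one hour in 0.05 M citrate pH 3.5, 5 mM CHAPS, 10% DMSO final before a Tris stop raised pH to neutrality.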

[1] = tested on: Aβ40 in conditioned medium of cells stably expressing Amyloid Precursor Protein (APP); assay: In vitro BACE-1 cell-based assay (Aβ40 sandwich ELISA); settings: read-out: IC50 IP (μM) BACE1 cell
Summary of the method: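 Aβ40 in supernatants measured by time-resolved fluorescence sandwich ELISA, with pAb40 as capture and biotin-6E10 as detector antibody, each incubated at 4 °C.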

Chain of Recombinant Cat D (P07339 65-412): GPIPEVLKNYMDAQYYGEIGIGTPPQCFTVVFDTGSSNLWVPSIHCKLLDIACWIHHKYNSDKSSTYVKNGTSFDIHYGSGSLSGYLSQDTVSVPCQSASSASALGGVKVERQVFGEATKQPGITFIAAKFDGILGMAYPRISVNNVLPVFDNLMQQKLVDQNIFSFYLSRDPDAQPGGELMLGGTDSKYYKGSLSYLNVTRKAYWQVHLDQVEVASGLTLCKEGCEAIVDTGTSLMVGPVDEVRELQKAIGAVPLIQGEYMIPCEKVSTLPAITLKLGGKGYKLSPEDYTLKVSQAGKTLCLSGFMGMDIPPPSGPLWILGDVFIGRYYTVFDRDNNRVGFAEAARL
Chain of human recombinant BACE1 (P56817 46-501): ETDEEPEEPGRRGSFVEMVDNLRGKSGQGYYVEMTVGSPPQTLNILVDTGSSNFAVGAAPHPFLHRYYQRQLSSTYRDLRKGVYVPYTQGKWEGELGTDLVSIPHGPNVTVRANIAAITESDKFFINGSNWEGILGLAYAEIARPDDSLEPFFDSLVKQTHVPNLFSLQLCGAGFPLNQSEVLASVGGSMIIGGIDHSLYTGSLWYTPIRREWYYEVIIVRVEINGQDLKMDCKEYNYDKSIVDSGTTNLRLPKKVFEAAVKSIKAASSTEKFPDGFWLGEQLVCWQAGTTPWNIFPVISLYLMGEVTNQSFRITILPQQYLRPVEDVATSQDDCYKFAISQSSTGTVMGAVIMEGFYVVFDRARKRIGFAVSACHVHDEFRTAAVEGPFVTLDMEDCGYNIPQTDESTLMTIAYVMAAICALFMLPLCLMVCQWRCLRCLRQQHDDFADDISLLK
Chain of human recombinant BACE2 (Q9Y5Z0 63-518): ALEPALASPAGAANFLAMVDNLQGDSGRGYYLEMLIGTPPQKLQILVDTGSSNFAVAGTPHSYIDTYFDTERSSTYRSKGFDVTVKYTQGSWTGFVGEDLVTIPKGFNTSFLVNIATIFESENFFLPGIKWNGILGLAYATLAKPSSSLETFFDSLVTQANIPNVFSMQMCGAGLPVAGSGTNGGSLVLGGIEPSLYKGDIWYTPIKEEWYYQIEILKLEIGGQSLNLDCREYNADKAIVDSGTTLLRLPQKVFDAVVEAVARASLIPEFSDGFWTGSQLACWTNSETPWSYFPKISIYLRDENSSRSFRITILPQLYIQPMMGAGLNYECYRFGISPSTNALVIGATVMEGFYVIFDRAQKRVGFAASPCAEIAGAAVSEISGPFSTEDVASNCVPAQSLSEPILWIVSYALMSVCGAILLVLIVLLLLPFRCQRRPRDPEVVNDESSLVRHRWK

Row | Structure (SMILES) | IC50 (human recombinant BACE2) | IC50 (human recombinant BACE1) | IC50 (Recombinant Cat D) | IC50 [1]
1 | C[C@]1(c2cc(NC(=O)c3cnc(OCc4ncco4)cn3)cc(F)c2F)N=C(N)S[C@@]2(CF)C[C@H]21 [Example 811, N-(3-((1S,5S,6S)-3-amino-1-(fluoromethyl)-5-methyl-2-thia-4-azabicyclo[4.1.0]hept-3-en-5-yl)-4,5-difluorophenyl)-5-(1,3-oxazol-2-ylmethoxy)-2-pyrazinecarboxamide] | 0.0207 µM | 0.000676 µM | 297 µM | 0.00126 µM
2 | C#CCOc1cnc2c(Nc3ccc(F)c([C@@]4(C)N=C(N)S[C@@]5(C(F)F)C[C@@H]45)c3)nccc2n1 [Example 816, N-(3-((1S,5S,6S)-3-amino-1-(difluoromethyl)-5-methyl-2-thia-4-azabicyclo[4.1.0]hept-3-en-5-yl)-4-fluorophenyl)-2-(2-propyn-1-yloxy)pyrido[3,4-b]pyrazin-5-amine] | 0.0183 µM | 0.000244 µM | 73.6 µM | 0.00122 µM
3 | C[C@]1(c2cc(Nc3nccc4nc(OCc5ncco5)cnc34)ccc2F)N=C(N)S[C@@]2(C(F)F)C[C@@H]12 [Example 817, N-(3-((1S,5S,6S)-3-amino-1-(difluoromethyl)-5-methyl-2-thia-4-azabicyclo[4.1.0]hept-3-en-5-yl)-4-fluorophenyl)-2-(1,3-oxazol-2-ylmethoxy)pyrido[3,4-b]pyrazin-5-amine] | 0.0319 µM | 0.000706 µM | 124 µM | 0.00171 µM
4 | C[C@]1(c2cc(NC(=O)c3ccc(Cl)cn3)ccc2F)N=C(N)S[C@@]2(C(F)F)C[C@@H]12 [Example 818, N-(3-((1S,5S,6S)-3-amino-1-(difluoromethyl)-5-methyl-2-thia-4-azabicyclo[4.1.0]hept-3-en-5-yl)-4-fluorophenyl)-5-chloro-2-pyridinecarboxamide] | < 0.00203 µM | 0.000587 µM | 152 µM | 0.00164 µM
5 | C#CCOc1cnc(C(=O)Nc2ccc(F)c([C@@]3(C)N=C(N)S[C@@]4(C(F)F)C[C@@H]34)c2)cn1 [Example 820, N-(3-((1S,5S,6S)-3-amino-1-(difluoromethyl)-5-methyl-2-thia-4-azabicyclo[4.1.0]hept-3-en-5-yl)-4-fluorophenyl)-5-(2-propyn-1-yloxy)-2-pyrazinecarboxamide] | 0.0162 µM | 0.000319 µM | 60.4 µM | 0.000495 µM
6 | C[C@]1(c2cc(NC(=O)c3ccc(Cl)cn3)ccc2F)N=C(N)S[C@@]2(CF)C[C@H]21 [Example 821, N-(3-((1S,5S,6S)-3-amino-1-(fluoromethyl)-5-methyl-2-thia-4-azabicyclo[4.1.0]hept-3-en-5-yl)-4-fluorophenyl)-5-chloro-2-pyridinecarboxamide] | < 0.00203 µM | 0.00298 µM | 1170 µM | 0.00428 µM
7 | C#CCOc1cnc2c(Nc3ccc(F)c([C@@]4(C)N=C(N)S[C@@]5(CF)C[C@H]54)c3)ncnc2c1 [Example 824, N-(3-((1S,5S,6S)-3-amino-1-(fluoromethyl)-5-methyl-2-thia-4-azabicyclo[4.1.0]hept-3-en-5-yl)-4-fluorophenyl)-7-(2-propyn-1-yloxy)pyrido[3,2-d]pyrimidin-4-amine] | 0.0842 µM | 0.00299 µM | 1840 µM | 0.00128 µM
8 | C[C@]1(c2cc(Nc3nccc4nc(OCc5ncco5)cnc34)ccc2F)N=C(N)S[C@@]2(CF)C[C@H]21 [Example 825, N-(3-((1S,5S,6S)-3-amino-1-(fluoromethyl)-5-methyl-2-thia-4-azabicyclo[4.1.0]hept-3-en-5-yl)-4-fluorophenyl)-2-(1,3-oxazol-2-ylmethoxy)pyrido[3,4-b]pyrazin-5-amine] | 0.0542 µM | 0.00357 µM | 526 µM | 0.00111 µM
9 | C[C@]1(c2cc(NC(=O)c3cnc(OCC(F)(F)F)cn3)ccc2F)N=C(N)S[C@@]2(CF)C[C@H]21 [Example 826, N-(3-((1S,5S,6S)-3-amino-1-(fluoromethyl)-5-methyl-2-thia-4-azabicyclo[4.1.0]hept-3-en-5-yl)-4-fluorophenyl)-5-(2,2,2-trifluoroethoxy)-2-pyrazinecarboxamide] | 0.0778 µM | 0.00174 µM | 395 µM | 0.00331 µM
10 | C#CCOc1cnc(C(=O)Nc2ccc(F)c([C@@]3(C)N=C(N)S[C@@]4(CF)C[C@H]43)c2)c(C)n1 [Example 829, N-(3-((1S,5S,6S)-3-amino-1-(fluoromethyl)-5-methyl-2-thia-4-azabicyclo[4.1.0]hept-3-en-5-yl)-4-fluorophenyl)-3-methyl-5-(2-propyn-1-yloxy)-2-pyrazinecarboxamide] | 0.00801 µM | 0.000776 µM | 354 µM | 0.0019 µM
11 | C#CCOc1cnc(C(=O)Nc2ccc(F)c([C@@]3(C)N=C(N)S[C@@]4(COC)C[C@H]43)c2)c(C)n1 [Example 832, N-(3-((1S,5S,6S)-3-amino-1-(methoxymethyl)-5-methyl-2-thia-4-azabicyclo[4.1.0]hept-3-en-5-yl)-4-fluorophenyl)-3-methyl-5-(2-propyn-1-yloxy)-2-pyrazinecarboxamide] | 0.013 µM | 0.00299 µM | 778 µM | 0.00213 µM
12 | COC[C@]12C[C@H]1[C@@](C)(c1cc(NC(=O)c3ncc(OCc4ncco4)nc3C)ccc1F)N=C(N)S2 [Example 835, N-(3-((1S,5S,6S)-3-amino-1-(methoxymethyl)-5-methyl-2-thia-4-azabicyclo[4.1.0]hept-3-en-5-yl)-4-fluorophenyl)-3-methyl-5-(1,3-oxazol-2-ylmethoxy)-2-pyrazinecarboxamide] | 0.0249 µM | 0.00305 µM | > 400 µM | 0.00392 µM

Continued by falling IC50 (human recombinant BACE2), values first:

Row | IC50 (human recombinant BACE2) | IC50 (human recombinant BACE1) | IC50 (Recombinant Cat D) | IC50 [1] | Structure (SMILES)
13 | 0.0841 µM | 0.000711 µM | 293 µM | 0.00659 µM | C[C@]1(c2cc(NC(=O)c3cnc(OCC(F)(F)F)cn3)ccc2F)N=C(N)S[C@@]2(C(=O)NC3CC3)C[C@H]21 [Example 800, (1S,5S,6S)-3-amino-N-cyclopropyl-5-(2-fluoro-5-(((5-(2,2,2-trifluoroethoxy)-2-pyrazinyl)carbonyl)amino)phenyl)-5-methyl-2-thia-4-azabicyclo[4.1.0]hept-3-ene-1-carboxamide]
14 | 0.0412 µM | 0.000821 µM | 34.2 µM | 0.00175 µM | C#CCOc1cnc2c(Nc3ccc(F)c([C@@]4(C)N=C(N)S[C@@]5(C(F)F)C[C@@H]45)c3)ncnc2c1 [Example 819, N-(3-((1S,5S,6S)-3-amino-1-(difluoromethyl)-5-methyl-2-thia-4-azabicyclo[4.1.0]hept-3-en-5-yl)-4-fluorophenyl)-7-(2-propyn-1-yloxy)pyrido[3,2-d]pyrimidin-4-amine]
15 | 0.0362 µM | 0.00209 µM | > 400 µM | 0.00389 µM | Cc1nc(OCc2ncco2)cnc1C(=O)Nc1ccc(F)c([C@@]2(C)N=C(N)S[C@@]3(C(F)F)C[C@@H]23)c1 [Example 836, N-(3-((1S,5S,6S)-3-amino-1-(difluoromethyl)-5-methyl-2-thia-4-azabicyclo[4.1.0]hept-3-en-5-yl)-4-fluorophenyl)-3-methyl-5-(1,3-oxazol-2-ylmethoxy)-2-pyrazinecarboxamide]
16 | 0.0358 µM | 0.000974 µM | 123 µM | 0.00181 µM | COC[C@]12C[C@H]1[C@@](C)(c1cc(Nc3ncnc4cc(OCc5ncco5)cnc34)cc(F)c1F)N=C(N)S2 [Example 809, N-(3-((1S,5S,6S)-3-amino-1-(methoxymethyl)-5-methyl-2-thia-4-azabicyclo[4.1.0]hept-3-en-5-yl)-4,5-difluorophenyl)-7-(1,3-oxazol-2-ylmethoxy)pyrido[3,2-d]pyrimidin-4-amine]
17 | 0.0259 µM | 0.00253 µM | 1070 µM | 0.00325 µM | Cc1nc(OCc2ncco2)cnc1C(=O)Nc1ccc(F)c([C@@]2(C)N=C(N)S[C@@]3(CF)C[C@H]32)c1 [Example 837, N-(3-((1S,5S,6S)-3-amino-1-(fluoromethyl)-5-methyl-2-thia-4-azabicyclo[4.1.0]hept-3-en-5-yl)-4-fluorophenyl)-3-methyl-5-(1,3-oxazol-2-ylmethoxy)-2-pyrazinecarboxamide]
18 | 0.0101 µM | 0.000566 µM | 121 µM | 0.00221 µM | C#CCOc1cnc(C(=O)Nc2ccc(F)c([C@@]3(C)N=C(N)S[C@@]4(C(F)F)C[C@@H]34)c2)c(C)n1 [Example 830, N-(3-((1S,5S,6S)-3-amino-1-(difluoromethyl)-5-methyl-2-thia-4-azabicyclo[4.1.0]hept-3-en-5-yl)-4-fluorophenyl)-3-methyl-5-(2-propyn-1-yloxy)-2-pyrazinecarboxamide]
19 | 0.0061 µM | 0.0041 µM | > 400 µM | 0.0137 µM | COC[C@]12C[C@H]1[C@@](C)(c1cc(NC(=O)c3ccc(Cl)cn3)ccc1F)N=C(N)S2 [Example 833, N-(3-((1S,5S,6S)-3-amino-1-(methoxymethyl)-5-methyl-2-thia-4-azabicyclo[4.1.0]hept-3-en-5-yl)-4-fluorophenyl)-5-chloro-2-pyridinecarboxamide]
